Test results: patent publication US11512279B2, “Technology to generate and utilize customized microorganism-growth assay keys” (priority 2018, dated 2022)

Tests used:
C. auris [1] = test: Differentiation of C. auris from other Candida species with other QACs in growth media; type: cell-based; conditions: QAC added to growth medium
C. auris [2] = test: Plate assay on Sabouraud dextrose medium with tBHP (FIGS. 13A-13B); type: cell-based, Candida auris; conditions: 30° C.
Procedure: FIGS. 13A-13B illustrate C. auris's relative sensitivity to tBHP. FIG. 13A depicts a plate with a tBHP-containing culture medium that includes seven different yeasts (Candida albicans, Candida glabrata, Candida krusei, Candida auris, Candida haemulonii, Candida famata, and Saccharomyces cerevisiae) at five different calculated cell counts (62, 625, 6,250, […], with the uncertainty inherent in the calculation). The yeast-containing plate was incubated at 30° C. The plating scheme is illustrated in FIG. 1. The culture medium comprised a Sabouraud dextrose medium with tBHP (added after autoclaving the other media ingredients from a 70% solution in water). Whereas a resuspension of cells picked from a colony will always enhance the sensitivity of this (and related) assays, it is possible to streak cells without any dilution directly from a colony if the plate is evaluated early (after approximately 24 hours, some regrowth will occur later), as depicted in FIG. 13B. […]

Candida auris = test: BAC media panel growth key (Table A, FIG. 19); type: cell-based; conditions: BAC low 1.5 mg/l or high 10 mg/l; pH 3.3 or 7.5; peptone, potato dextrose or YNB with amino acids; 23° C. or 37° C.
Text: (§1) As an example, a group of 36 yeast strains with Candida-like morphology representing 29 different species was used to define single species or subgroups of species depending on their QAC sensitivity at different temperatures, pH values and in the presence of different supplements (e.g. peptone, potato dextrose, and YNB with amino acids).
(§2) Preliminary tests were designed with several representative yeast strains with a range of benzalkonium chloride (“BAC”) concentrations, a mix of supplements, neutral pH, and intermediate temperature (30° C.). The observed growth characteristics made it likely that two BAC concentrations (“low”=1.5 mg/l and “high”=10 mg/l) could be used in conjunction with the three different growth supplements (used separately). Low and high pH and temperature values were defined to elicit species-specific growth responses: two different pH conditions (pH 3.3 and pH 7.5, adjusted with concentrations of HCl or 100 mg/ml NaOH) and incubation temperatures (23° C. and 37° C.). Commonly used concentrations for peptone (20 g/l), potato dextrose (24 g/l), and yeast nitrogen base with amino acids (6.7 g/l) were applied. […] For example: “pH7.5/low BAC/Pep-23° C.” refers to a plate with pH 7.5, […] BAC (low BAC) containing peptone as a growth supplement and incubated at 23° C.
(§3) All 36 strains were streaked and precultured for 48 h on Sabauroud-dextrose medium at 30° C. before cell samples were suspended in water (as described before). 10-15 μl drops of these suspensions were applied to the different media and plates were incubated in parallel at 37° C. and 23° C. These drops were classified as growing (+) or non-growing (−) after 3 days or 5 days of incubation, respectively.

Candida guilliermondii = test: BAC media panel growth key (Table A, FIG. 19); type: cell-based; conditions: BAC low 1.5 mg/l or high 10 mg/l; pH 3.3 or 7.5; peptone, potato dextrose or YNB with amino acids; 23° C. or 37° C.
Text: as §1, §2, §3

Candida rugosa = test: BAC media panel growth key (Table A, FIG. 19); type: cell-based; conditions: BAC low 1.5 mg/l or high 10 mg/l; pH 3.3 or 7.5; peptone, potato dextrose or YNB with amino acids; 23° C. or 37° C.
Text: as §1, §2, §3

Candida valida = test: BAC media panel growth key (Table A, FIG. 19); type: cell-based; conditions: BAC low 1.5 mg/l or high 10 mg/l; pH 3.3 or 7.5; peptone, potato dextrose or YNB with amino acids; 23° C. or 37° C.
Text: as §1, §2, §3

**Q.** How did the “use to differentiate C. auris from other Candida species” value (“use to differentiate C. auris” below) (C. auris [1]) turn out when `CC(C)(C)CC(C)(C)c1ccc(OCCOCC[N+](C)(C)Cc2ccccc2)cc1` [benzethonium chloride] was run?
**A.** Its value is “successfully used”.

**Q.** For `CC(C)(C)OO` [tert-butyl-hydroperoxide], which “sensitivity to tBHP relative to other yeasts” value (C. auris [2]) is on record?
**A.** The value was “relatively high sensitivity”.

**Q.** `CCCCCCCCCCCCCC[N+](C)(C)C.[Br-]` [tetradecyltrimethylammonium bromide] was tested. Which “use to differentiate C. auris” value (C. auris [1]) did it give?
**A.** The value was “successfully used”.

**Q.** Which “growth pattern over 24 BAC / supplement / pH / temperature conditions” value (Candida auris) does the source give for benzalkonium chloride here?
**A.** Its value is “resistance to BAC under virtually all conditions”.

**Q.** What about the “growth pattern over 24 BAC / supplement / pH / temperature conditions” value (Candida guilliermondii) of the same compound?
**A.** Its value is “growth is observed under all conditions at 23 °C but not 37 °C”.

**Q.** And the “growth pattern over 24 BAC / supplement / pH / temperature conditions” value (Candida rugosa)?
**A.** The value was “growth at the high concentration appears to be restricted to the low pH”.

**Q.** What about the “growth pattern over 24 BAC / supplement / pH / temperature conditions” value (Candida valida) of the same compound?
**A.** The value was “BAC sensitivity under all conditions”.

**Q.** What about the “use to differentiate C. auris” value (C. auris [1]) of the same compound?
**A.** Its value is “successfully used”.
